Source: ChEMBL document CHEMBL6074689 (Eur J Med Chem, 2025)
Active and inactive are the calls of the source. The rule behind the calls is not given here.

Legend:
[1] = target: T1, Acetylcholinesterase (Homo sapiens, UniProt P22303); test: Inhibition of human recombinant AChE expressed in HEK293 cells using acetylthiocholine iodide as substrate preincubated with compound for 30 mins followed by substrate addition and measured after 30 mins by DTNB reagent based Ellman's method
[2] = target: Cholinesterase (Equus caballus, UniProt P81908); test: Inhibition of equine serum BChE using acetylthiocholine iodide as substrate preincubated with compound for 30 mins followed by substrate addition and measured after 30 mins by DTNB reagent based Ellman's method
[3] = target: T1, Acetylcholinesterase; test: Reversible binding affinity to human AChE using acetylthiocholine iodide as substrate assessed as equilibrium binding constant preincubated for 40 mins by DTNB reagent based Ellman's method
[4] = target: T1, Acetylcholinesterase; test: Displacement of propidium iodide from human AChE PAS assessed as reduction in fluorescence intensity at 5 uM incubated for 6 hrs by fluorescence based analysis relative to control; design: scale not given: the % may be the effect or the level left
[5] = target: T1, Acetylcholinesterase; test: Displacement of propidium iodide from human AChE PAS assessed as reduction in fluorescence intensity at 1 uM incubated for 6 hrs by fluorescence based analysis relative to control; design: scale not given: the % may be the effect or the level left
[6] = target: T1, Acetylcholinesterase; test: Displacement of propidium iodide from human AChE PAS assessed as reduction in fluorescence intensity at 0.1 uM incubated for 6 hrs by fluorescence based analysis relative to control; design: scale not given: the % may be the effect or the level left
[7] = target: T1, Acetylcholinesterase; test: Displacement of propidium iodide from human AChE PAS assessed as reduction in fluorescence intensity at 0.01 uM incubated for 6 hrs by fluorescence based analysis relative to control; design: scale not given: the % may be the effect or the level left
[8] = system: PC-12; test: Cytotoxicity against rat PC-12 cells assessed as cell viability upto 20 uM measured for 24 hrs by MTT assay; type: toxicity, cell-based; conditions: pc-12, 24 h
[9] = system: PC-12; test: Induction of apoptosis in rat PC-12 cells assessed as viable cells at 2.5 uM incubated for 24 hrs by Annexin V/PI staining based flow cytometry analysis (reference value: 82.8%); type: functional; conditions: read-out: Activity
[10] = system: PC-12; test: Induction of apoptosis in rat PC-12 cells assessed as viable cells at 10 uM incubated for 24 hrs by Annexin V/PI staining based flow cytometry analysis (reference value: 82.8%); type: functional; conditions: read-out: Activity
[11] = Metal chelating activity assessed as compound-Fe2+ complex formation by measuring increase in absorption intensity at 300 uM in presence of by UV-vis spectrometry
[12] = Metal chelating activity assessed as compound-Cu2+ complex formation by measuring increase in absorption intensity at 300 uM in presence of by UV-vis spectrometry
[13] = Permeability of the compound across blood brain barrier; type: ADME; conditions: read-out: BBB
[14] = target: Amyloid-beta precursor protein (Homo sapiens) (UniProt P05067); test: Inhibition of amyloid beta (1 to 42) (unknown origin) self induced aggregation at 1.521 uM incubated for 72 hrs by ThT fluorescence based assay
[15] = Toxicity in Drosophila melanogaster Oregon R-positive assessed as reduction in eclosed flies at 10 uM measured for 15 days relative to control; design: scale not given: the % may be the effect or the level left; conditions: 360 h, time 15 day
[16] = Acute toxicity in Swiss albino mouse assessed as body weight gain at 175 mg/kg, po administered for 14 days; type: organism-based; conditions: in vivo, 336 h, time 14 day
[17] = system: Drosophila melanogaster; test: Anti-alzheimer activity in ey-GAL4 driven UAS-amyloid beta (1 to 42) induced Drosophila melanogaster Oregon R-positive assessed as rescued eye phenotype at 10 to 20 uM by Stereo zoom microscopic imaging analysis relative to control; type: functional; conditions: dose 10-20 µM
[18] = system: Drosophila melanogaster; test: Anti-alzheimer activity in ey-GAL4 driven UAS-amyloid beta (1 to 42) induced Drosophila melanogaster Oregon R-positive assessed as rescued eye phenotype at 10 uM by Stereo zoom microscopic imaging analysis relative to control; type: functional
[19] = system: Drosophila melanogaster; test: Anti-alzheimer activity in ey-GAL4 driven UAS-amyloid beta (1 to 42) induced Drosophila melanogaster Oregon R-positive assessed as severe eye phenotype at 40 uM by Stereo zoom microscopic imaging analysis relative to control; type: functional
[20] = system: Drosophila melanogaster; test: Anti-alzheimer activity in ey-GAL4 driven UAS-amyloid beta (1 to 42) induced Drosophila melanogaster Oregon R-positive assessed as rescued eye phenotype at 50 uM by Stereo zoom microscopic imaging analysis relative to control; type: functional
[21] = system: Drosophila melanogaster; test: Anti-alzheimer activity in ey-GAL4 driven UAS-amyloid beta (1 to 42) induced Drosophila melanogaster Oregon R-positive assessed as increase in superoxide level at 10 to 20 uM by fluorescence based analysis; type: functional, organism-based; conditions: dose 10-20 µM
[22] = system: Drosophila melanogaster; test: Inhibition of oxidative stress in y-GAL4 driven UAS-amyloid beta (1 to 42) induced Drosophila melanogaster Oregon R-positive assessed as reduction in ROS level at 10 to 20 uM incubated for 30 mins by H2DCFDA staining based analysis; type: functional, organism-based; conditions: dose 10-20 µM
[23] = Acute toxicity in Swiss albino mouse assessed as abnormal behavior at 175 mg/kg, po administered for 14 days; type: organism-based; conditions: in vivo, 336 h, time 14 day
[24] = Acute toxicity in Swiss albino mouse assessed as tremor at 175 mg/kg, po administered for 14 days; type: organism-based; conditions: in vivo, 336 h, time 14 day
[25] = system: Mus musculus; test: Antialzheimer activity in scopolamine-induced Swiss albino mouse model assessed as decrease in escape latency at 0.3 to 0.5 mg/kg, po preincubated with compound for 30 mins followed by scopolamine induction and measured after 5 days by Morris water maze test; type: functional, organism-based; conditions: dose 0.3-0.5 mg/kg, time 7230.0 min
[26] = system: Mus musculus; test: Antialzheimer activity in scopolamine-induced Swiss albino mouse model assessed as improvement in memory retention by measuring time spent in platform quadrant at 0.3 to 0.5 mg/kg, po preincubated with compound for 30 mins followed by scopolamine induction and measured after 5 days by Morris water maze test; type: functional, organism-based; conditions: dose 0.3-0.5 mg/kg, time 7230.0 min
[27] = system: Mus musculus; test: Antialzheimer activity in scopolamine-induced Swiss albino mouse model assessed as reduction in BChE level at 0.3 to 0.5 mg/kg, po preincubated with compound for 30 mins followed by scopolamine induction and measured after 30 mins; type: functional, organism-based; conditions: dose 0.3-0.5 mg/kg, time 1.0 hrs
[28] = system: Mus musculus; test: Neuroprotective activity against scopolamine-induced Swiss albino mouse model assessed as increase in CREB1 mRNA level at 0.3 to 0.5 mg/kg, po measured after 6 days by RT-PCR analysis; type: functional, organism-based; conditions: dose 0.3-0.5 mg/kg, time 6.0 day
[29] = system: Mus musculus; test: Neuroprotective activity against scopolamine-induced Swiss albino mouse model assessed as increase in C-FOS mRNA level at 0.3 to 0.5 mg/kg, po measured after 6 days by RT-PCR analysis; type: functional, organism-based; conditions: dose 0.3-0.5 mg/kg, time 6.0 day
[30] = system: Mus musculus; test: Neuroprotective activity against scopolamine-induced Swiss albino mouse model assessed as effect on GAP43 mRNA level at 0.3 to 0.5 mg/kg, po measured after 6 days by RT-PCR analysis; type: functional, organism-based; conditions: dose 0.3-0.5 mg/kg, time 6.0 day
[31] = system: Mus musculus; test: Neuroprotective activity against scopolamine-induced Swiss albino mouse model assessed as effect on PSD95 mRNA level at 0.3 to 0.5 mg/kg, po measured after 6 days by RT-PCR analysis; type: functional, organism-based; conditions: dose 0.3-0.5 mg/kg, time 6.0 day
[32] = system: Mus musculus; test: Neuroprotective activity against scopolamine-induced Swiss albino mouse model assessed as upregulation of PKA mRNA level at 0.3 to 0.5 mg/kg, po measured after 6 days by RT-PCR analysis; type: functional, organism-based; conditions: dose 0.3-0.5 mg/kg, time 6.0 day
[33] = system: Mus musculus; test: Neuroprotective activity against scopolamine-induced Swiss albino mouse model assessed as upregulation of MMP9 mRNA level at 0.3 to 0.5 mg/kg, po measured after 6 days by RT-PCR analysis; type: functional, organism-based; conditions: dose 0.3-0.5 mg/kg, time 6.0 day

T1 sequence (P22303 whole entry): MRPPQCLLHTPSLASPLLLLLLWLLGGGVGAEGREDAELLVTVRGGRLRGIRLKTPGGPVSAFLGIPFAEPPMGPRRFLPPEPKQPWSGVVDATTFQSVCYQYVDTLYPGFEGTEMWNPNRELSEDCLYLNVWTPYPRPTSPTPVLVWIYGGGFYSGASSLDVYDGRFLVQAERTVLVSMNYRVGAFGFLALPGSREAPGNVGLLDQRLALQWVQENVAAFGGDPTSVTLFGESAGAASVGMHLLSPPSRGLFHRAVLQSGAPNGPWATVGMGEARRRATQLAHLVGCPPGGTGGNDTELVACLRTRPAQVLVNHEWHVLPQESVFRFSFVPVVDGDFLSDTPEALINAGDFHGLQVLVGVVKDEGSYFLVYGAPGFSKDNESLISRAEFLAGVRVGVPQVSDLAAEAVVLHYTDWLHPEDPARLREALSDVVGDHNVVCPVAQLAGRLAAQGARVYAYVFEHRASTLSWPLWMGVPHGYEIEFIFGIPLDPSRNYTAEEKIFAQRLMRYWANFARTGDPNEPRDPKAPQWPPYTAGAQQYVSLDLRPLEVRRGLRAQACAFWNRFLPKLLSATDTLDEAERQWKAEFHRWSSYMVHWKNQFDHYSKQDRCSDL
Sequence of Amyloid-beta precursor protein (Homo sapiens) (P05067 whole entry): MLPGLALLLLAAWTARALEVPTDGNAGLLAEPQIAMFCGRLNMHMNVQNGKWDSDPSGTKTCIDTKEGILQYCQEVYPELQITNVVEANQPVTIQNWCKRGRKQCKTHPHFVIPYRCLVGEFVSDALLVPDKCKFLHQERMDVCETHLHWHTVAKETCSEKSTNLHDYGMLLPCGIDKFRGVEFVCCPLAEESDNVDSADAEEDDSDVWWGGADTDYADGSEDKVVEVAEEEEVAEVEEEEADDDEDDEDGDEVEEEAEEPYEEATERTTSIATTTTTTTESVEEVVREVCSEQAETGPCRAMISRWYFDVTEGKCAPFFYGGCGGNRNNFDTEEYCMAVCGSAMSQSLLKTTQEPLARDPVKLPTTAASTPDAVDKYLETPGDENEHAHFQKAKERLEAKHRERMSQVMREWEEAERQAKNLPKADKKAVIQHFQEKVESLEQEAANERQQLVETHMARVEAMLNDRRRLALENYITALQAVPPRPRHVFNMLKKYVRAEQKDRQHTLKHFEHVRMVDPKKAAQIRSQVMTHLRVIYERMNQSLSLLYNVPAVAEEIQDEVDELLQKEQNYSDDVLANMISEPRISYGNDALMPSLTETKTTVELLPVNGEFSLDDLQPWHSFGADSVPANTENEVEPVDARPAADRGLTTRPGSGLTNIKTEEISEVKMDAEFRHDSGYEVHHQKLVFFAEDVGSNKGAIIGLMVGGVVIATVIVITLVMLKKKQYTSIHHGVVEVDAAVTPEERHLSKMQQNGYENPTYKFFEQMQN
Sequence of Cholinesterase (P81908 whole entry): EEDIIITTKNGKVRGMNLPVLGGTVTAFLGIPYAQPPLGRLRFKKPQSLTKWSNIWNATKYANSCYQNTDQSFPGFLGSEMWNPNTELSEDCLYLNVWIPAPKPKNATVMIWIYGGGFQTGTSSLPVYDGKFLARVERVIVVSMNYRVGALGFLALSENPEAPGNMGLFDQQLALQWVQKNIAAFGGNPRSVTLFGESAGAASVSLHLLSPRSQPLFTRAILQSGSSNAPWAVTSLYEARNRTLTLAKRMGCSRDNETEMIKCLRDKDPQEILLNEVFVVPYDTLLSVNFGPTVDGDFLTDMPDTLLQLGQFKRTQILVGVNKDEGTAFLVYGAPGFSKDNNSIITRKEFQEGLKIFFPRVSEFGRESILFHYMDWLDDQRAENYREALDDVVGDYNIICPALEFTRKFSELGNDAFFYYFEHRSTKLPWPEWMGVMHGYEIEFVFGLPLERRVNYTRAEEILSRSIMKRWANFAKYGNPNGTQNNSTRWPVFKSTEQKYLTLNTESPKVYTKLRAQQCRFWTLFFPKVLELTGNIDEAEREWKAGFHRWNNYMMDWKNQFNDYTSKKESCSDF

C[C@@H](c1cccc(OC(=O)NCCc2c[nH]c3ccc(Cl)cc23)c1)N(C)C
IC50 [1]: 7.97 nM | IC50 [2]: 0.79 nM | Kb [3]: 0.196 nM | Activity [4]: 21.9% | Activity [5]: 20.4% | Activity [6]: 3.56% | Activity [7]: 1.37% | Activity [8]: Non-toxic | viability at 2.5 µM [9]: 72.2% | viability at 10 µM [10]: 55.3% | Activity [11]: inactive | Activity [12]: inactive | Papp [13]: 13 ×10⁻⁶ cm/s | inhibition [14]: 100% | Activity [15]: 108% | Activity [16]: Non-toxic | Activity [17]: 36% | Activity [18]: 43% | Activity [19]: 16% | Activity [20]: 23% | Activity [21]: Active | Activity [22]: Active | Activity [23]: Non-toxic | Activity [24]: Non-toxic | Activity [25]: Active | Activity [26]: Active | Activity [27]: Active | Activity [28]: Active | Activity [29]: Active | Activity [30]: Active | Activity [31]: Active | Activity [32]: Active | Activity [33]: Active
